The values below come from PubChem BioAssay AID256 (DTP/NCI, 2004).

This experiment has as its system CD2F1 mice, L1210 leukemia ip, survival T/C. Put plainly: NCI In Vivo Anticancer Drug Screen. Data for tumor model L1210 Leukemia (intraperitoneal) in CD2F1 (CDF1) mice. Particulars: higher = longer survival. The procedure, abridged: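 Transplantable tumor in mice; compound-treated vs vehicle-treated groups. Read-out = treated/control ratio of the measured endpoint.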

[1] abbreviates: endpoint: mean survival time, dose: 12.5 mg/kg/injection, schedule: Q01DX005 (ip), vehicle: distilled water + Tween-80.
Setting [2] is: endpoint: mean survival time, dose: 25.0 mg/kg/injection, schedule: Q01DX005 (ip), vehicle: distilled water + Tween-80.
Where [3] appears, read: endpoint: mean survival time, dose: 50.0 mg/kg/injection, schedule: Q01DX005 (ip), vehicle: distilled water + Tween-80.
Where [4] appears, read: endpoint: mean survival time, dose: 100.0 mg/kg/injection, schedule: Q01DX005 (ip), vehicle: distilled water + Tween-80.
Where [5] appears, read: endpoint: mean survival time, dose: 100.0 mg/kg/injection, schedule: Q04DX003 (ip), vehicle: saline with Tween-80.
[6] abbreviates: endpoint: mean survival time, dose: 200.0 mg/kg/injection, schedule: Q04DX003 (ip), vehicle: saline with Tween-80.
[7] abbreviates: endpoint: mean survival time, dose: 400.0 mg/kg/injection, schedule: Q04DX003 (ip), vehicle: saline with Tween-80.
[8] abbreviates: endpoint: mean survival time, dose: 100.0 mg/kg/injection, schedule: Q01DX009 (ip), vehicle: saline with Tween-80.
Where [9] appears, read: endpoint: mean survival time, dose: 200.0 mg/kg/injection, schedule: Q01DX009 (ip), vehicle: saline with Tween-80.

Structures are written as SMILES. “And” between values parts separate entries of the source, which are not always exact repeats. Identical values can stand only once. Toxic doses and inconclusive results are not listed.

Consider `O=c1[nH]cnc2c1nc(N1CCCC1)n2C1OC(CO)C(O)C1O` (stereo not given), for which the T/C under setting [1] is 102 % of control, the T/C under setting [2] is 98 % of control, the T/C under setting [3] is 100 % of control and the T/C under setting [4] is 102 % of control.
As to `CCOC(=O)CCC(NC(=O)c1ccc(NCc2ccc3nc(N)nc(N)c3c2C)cc1)C(=O)OCC` (stereo not given), the T/C (endpoint: mean survival time, dose: 0.01 mg/kg/injection, schedule: Q01DX009 (ip), vehicle: saline + alcohol) was 104 % of control; the T/C (endpoint: mean survival time, dose: 0.02 mg/kg/injection, schedule: Q01DX009 (ip), vehicle: saline + alcohol) is 116 % of control; the T/C (endpoint: mean survival time, dose: 0.03 mg/kg/injection, schedule: Q01DX009 (ip), vehicle: saline + alcohol) is 113 % of control; the T/C (endpoint: mean survival time, dose: 0.06 mg/kg/injection, schedule: Q01DX001 (ip), vehicle: saline + alcohol) was 98 % of control and 101 % of control; the T/C (endpoint: mean survival time, dose: 0.06 mg/kg/injection, schedule: Q01DX009 (ip), vehicle: saline + alcohol) was 113 % of control; the T/C (endpoint: mean survival time, dose: 0.11 mg/kg/injection, schedule: Q01DX009 (ip), vehicle: saline + alcohol) was 110 % of control. The T/C is 112 % of control (endpoint: mean survival time, dose: 0.12 mg/kg/injection, schedule: Q01DX001 (ip), vehicle: saline + alcohol); 104 % of control (endpoint: mean survival time, dose: 0.13 mg/kg/injection, schedule: Q01DX001 (ip), vehicle: saline + alcohol); 121 % of control and 111 % of control (endpoint: mean survival time, dose: 0.25 mg/kg/injection, schedule: Q01DX001 (ip), vehicle: saline + alcohol); 122 % of control (endpoint: mean survival time, dose: 1.0 mg/kg/injection, schedule: Q01DX001 (ip), vehicle: saline + alcohol).
For the molecule `CCNC(=S)NN`, the T/C (endpoint: mean survival time, dose: 12.5 mg/kg/injection, schedule: Q01DX009 (ip), vehicle: saline with Tween-80) is 100 % of control.
For `Nc1nc(Cl)nc2c1ncn2C1OC(CO)C(O)C1O` (stereo not given), the T/C is 94 % of control (endpoint: mean survival time, dose: 6.25 mg/kg/injection, schedule: Q04DX002 (ip), vehicle: saline); 109 % of control (endpoint: mean survival time, dose: 12.5 mg/kg/injection, schedule: Q04DX002 (ip), vehicle: saline); 105 % of control (endpoint: mean survival time, dose: 25.0 mg/kg/injection, schedule: Q04DX002 (ip), vehicle: saline); 121 % of control (endpoint: mean survival time, dose: 100.0 mg/kg/injection, schedule: Q01DX009 (ip), vehicle: saline).
In the case of `CN1CCN(Cc2cn(C3CC(O)C(CO)O3)c(=O)[nH]c2=O)c2ccccc21` (stereo not given), the T/C under setting [1] is 93 % of control; the T/C under setting [2] was 93 % of control; the T/C under setting [3] was 93 % of control; the T/C under setting [4] was 103 % of control; the T/C (endpoint: mean survival time, dose: 200.0 mg/kg/injection, schedule: Q01DX005 (ip), vehicle: distilled water + Tween-80) is 93 % of control.
Consider `CCCCCCCCCCCCCCCC[N+]1(CCC)CCSCC1`, for which the T/C by setting is: (endpoint: mean survival time, dose: 100.0 mg/kg/injection, schedule: Q01DX001 (ip), vehicle: saline with Tween-80) 102 % of control; (endpoint: mean survival time, dose: 200.0 mg/kg/injection, schedule: Q01DX001 (ip), vehicle: saline with Tween-80) 110 % of control.
For the molecule `Cc1ccc(NC(=O)N(CCCl)N=O)c(C)c1`, the T/C was 167 % of control (endpoint: mean survival time, dose: 4.4 mg/kg/injection, schedule: Q01DX009 (ip), vehicle: other); 161 % of control (endpoint: mean survival time, dose: 6.6 mg/kg/injection, schedule: Q01DX009 (ip), vehicle: other); 183 % of control (endpoint: mean survival time, dose: 33.0 mg/kg/injection, schedule: Q01DX001 (ip), vehicle: other); 200 % of control (endpoint: mean survival time, dose: 50.0 mg/kg/injection, schedule: Q01DX001 (ip), vehicle: other); 178 % of control (endpoint: mean survival time, dose: 75.0 mg/kg/injection, schedule: Q01DX001 (ip), vehicle: other).
Regarding `O/N=C/c1ccc[nH]1`, the T/C reads like this: under setting [5], 96 % of control; under setting [6], 96 % of control; under setting [7], 96 % of control.
As to `O=C(O)C1C(=O)CC2(O)c3ccccc3-c3ccccc3C12` (stereo not given), the T/C (endpoint: mean survival time, dose: 100.0 mg/kg/injection, schedule: Q01DX001 (ip), vehicle: Klucel (hydroxypropylcellulose) (HPC)) was 98 % of control; the T/C (endpoint: mean survival time, dose: 100.0 mg/kg/injection, schedule: Q04DX002 (ip), vehicle: saline with Tween-80) is 96 % of control; the T/C (endpoint: mean survival time, dose: 200.0 mg/kg/injection, schedule: Q01DX001 (ip), vehicle: Klucel (hydroxypropylcellulose) (HPC)) is 94 % of control; the T/C (endpoint: mean survival time, dose: 200.0 mg/kg/injection, schedule: Q04DX002 (ip), vehicle: saline with Tween-80) is 93 % of control; the T/C (endpoint: mean survival time, dose: 400.0 mg/kg/injection, schedule: Q01DX001 (ip), vehicle: Klucel (hydroxypropylcellulose) (HPC)) is 94 % of control; the T/C (endpoint: mean survival time, dose: 400.0 mg/kg/injection, schedule: Q04DX002 (ip), vehicle: saline with Tween-80) is 93 % of control.
`O=C1CCCC2C1CCCC21OCCO1` (stereo not given): the T/C is 93 % of control (endpoint: mean survival time, dose: 25.0 mg/kg/injection, schedule: Q04DX003 (ip), vehicle: saline); 100 % of control (endpoint: mean survival time, dose: 50.0 mg/kg/injection, schedule: Q04DX003 (ip), vehicle: saline); 102 % of control (endpoint: mean survival time, dose: 100.0 mg/kg/injection, schedule: Q04DX003 (ip), vehicle: saline).
As for `CCOC(=O)c1c(NC(=O)CBr)sc(C)c1C`, the T/C by setting is: (endpoint: mean survival time, dose: 75.0 mg/kg/injection, schedule: Q01DX001 (ip), vehicle: saline) 104 % of control; (endpoint: mean survival time, dose: 150.0 mg/kg/injection, schedule: Q01DX001 (ip), vehicle: saline) 98 % of control; (endpoint: mean survival time, dose: 300.0 mg/kg/injection, schedule: Q01DX001 (ip), vehicle: saline) 104 % of control.
With `Cc1ccc2cc3c(cc2c1C)sc1ccccc13`, the T/C runs as follows: (endpoint: mean survival time, dose: 8.8 mg/kg/injection, schedule: Q04DX003 (ip), vehicle: other) 108 % of control; (endpoint: mean survival time, dose: 17.5 mg/kg/injection, schedule: Q04DX003 (ip), vehicle: other) 115 % of control; (endpoint: mean survival time, dose: 35.0 mg/kg/injection, schedule: Q04DX003 (ip), vehicle: other) 108 % of control; (endpoint: mean survival time, dose: 70.0 mg/kg/injection, schedule: Q04DX003 (ip), vehicle: other) 97 % of control; (endpoint: mean survival time, dose: 140.0 mg/kg/injection, schedule: Q04DX003 (ip), vehicle: other) 93 % of control.
As to `O=C1CC(C(=O)O)C2(CCCCCC2)O1` (stereo not given), the T/C reads like this: (endpoint: median survival time, dose: 12.5 mg/kg/injection, schedule: Q04DX003 (ip), vehicle: saline with Tween-80) 90 % of control; (endpoint: median survival time, dose: 25.0 mg/kg/injection, schedule: Q04DX003 (ip), vehicle: saline with Tween-80) 90 % of control; (endpoint: median survival time, dose: 50.0 mg/kg/injection, schedule: Q04DX003 (ip), vehicle: saline with Tween-80) 100 % of control.
For the molecule `FC(F)(F)Cc1cccc(C(F)(F)F)c1`, the T/C is 109 % of control under setting [5], 108 % of control under setting [6] and 100 % of control under setting [7].
Take `O=NN(CCOS(=O)(=O)c1ccc(Br)cc1)C(=O)NC1CCCCC1`: the T/C reads like this: (endpoint: mean survival time, dose: 100.0 mg/kg/injection, schedule: Q01DX001 (ip), vehicle: other) 102 % of control; (endpoint: mean survival time, dose: 200.0 mg/kg/injection, schedule: Q01DX001 (ip), vehicle: other) 101 % of control.
As to `CCCCCCOS(=O)OC(C)C(Cl)C(=O)OCC` (stereo not given), the T/C under setting [8] was 97 % of control; the T/C under setting [9] is 97 % of control; the T/C (endpoint: mean survival time, dose: 400.0 mg/kg/injection, schedule: Q01DX009 (ip), vehicle: saline with Tween-80) is 100 % of control.
Regarding `C=CCCCCCCCCC(=O)N(CC#N)CC(C)C`, the T/C is, setting by setting: under setting [8], 104 % of control; under setting [5], 96 % of control; under setting [9], 96 % of control; under setting [6], 100 % of control; under setting [7], 94 % of control.
Consider `O=C(Nc1ccccc1)OC1CCCCC1OC(=O)Nc1ccccc1` (stereo not given), for which the T/C (endpoint: mean survival time, dose: 400.0 mg/kg/injection, schedule: Q01DX001 (ip), vehicle: saline with Tween-80) is 86 % of control.
As to `S=P(N1CC1)(N1CC1)N1CC1.[Cl-].[Cl-].[NH2-].[NH2-].[Pt+4]`, the T/C is, setting by setting: (endpoint: mean survival time, dose: 0.78 mg/kg/injection, schedule: Q01DX009 (ip), vehicle: Klucel (hydroxypropylcellulose) (HPC)) 112 % of control and 101 % of control; (endpoint: mean survival time, dose: 1.56 mg/kg/injection, schedule: Q01DX009 (ip), vehicle: Klucel (hydroxypropylcellulose) (HPC)) 114 % of control and 115 % of control and 107 % of control; (endpoint: mean survival time, dose: 3.13 mg/kg/injection, schedule: Q01DX009 (ip), vehicle: Klucel (hydroxypropylcellulose) (HPC)) 153 % of control; (endpoint: mean survival time, dose: 6.25 mg/kg/injection, schedule: Q01DX009 (ip), vehicle: Klucel (hydroxypropylcellulose) (HPC)) 111 % of control.
Take `CC(=O)OCC(C)CCC(C)C(C)C1C(C)CC2C3CC=C4CC(OC(C)=O)CCC4(C)C3CCC21C` (stereo not given): the T/C reads like this: (endpoint: mean survival time, dose: 12.5 mg/kg/injection, schedule: Q01DX009 (ip), vehicle: Klucel (hydroxypropylcellulose) (HPC)) 104 % of control; (endpoint: mean survival time, dose: 25.0 mg/kg/injection, schedule: Q01DX009 (ip), vehicle: Klucel (hydroxypropylcellulose) (HPC)) 101 % of control; (endpoint: mean survival time, dose: 50.0 mg/kg/injection, schedule: Q01DX009 (ip), vehicle: Klucel (hydroxypropylcellulose) (HPC)) 101 % of control.
